According to ChEMBL document CHEMBL4396887, “Five-Membered N-Heterocyclic Scaffolds as Novel Amino Bioisosteres at γ-Aminobutyric Acid (GABA) Type A Receptors and GABA Transporters” (J Med Chem, 2019):
Active and inactive are the calls of the source. No cut-off for these calls is given here.

Assays:
Type in all cases: cell-based
[1] = molecular target: T1, Gamma-aminobutyric acid receptor subunit alpha-5/beta-2/gamma-2 (Homo sapiens, UniProt P18507+P31644+P47870); test: Agonist activity at recombinant human GABA-A alpha5beta2gamma2S receptor transiently expressed in human tsA201 cells incubated for 30 mins and measured up to 90 secs by FMP dye based FLIPR membrane potential blue assay
T1 sequence (P47870 whole entry): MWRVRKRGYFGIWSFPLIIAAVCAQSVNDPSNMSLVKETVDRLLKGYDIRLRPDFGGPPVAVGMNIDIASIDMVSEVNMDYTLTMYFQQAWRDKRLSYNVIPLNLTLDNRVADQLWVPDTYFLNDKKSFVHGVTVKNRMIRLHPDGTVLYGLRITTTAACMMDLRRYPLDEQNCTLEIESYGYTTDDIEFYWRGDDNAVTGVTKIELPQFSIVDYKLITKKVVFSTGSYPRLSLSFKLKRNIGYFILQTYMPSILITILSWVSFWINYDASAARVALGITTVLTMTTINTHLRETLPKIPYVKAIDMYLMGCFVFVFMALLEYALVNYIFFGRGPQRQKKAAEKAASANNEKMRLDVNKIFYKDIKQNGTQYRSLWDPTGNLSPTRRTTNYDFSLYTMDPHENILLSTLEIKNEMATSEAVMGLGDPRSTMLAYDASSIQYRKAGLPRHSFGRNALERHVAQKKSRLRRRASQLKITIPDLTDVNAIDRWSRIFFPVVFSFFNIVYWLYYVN
T1 sequence (P18507 whole entry): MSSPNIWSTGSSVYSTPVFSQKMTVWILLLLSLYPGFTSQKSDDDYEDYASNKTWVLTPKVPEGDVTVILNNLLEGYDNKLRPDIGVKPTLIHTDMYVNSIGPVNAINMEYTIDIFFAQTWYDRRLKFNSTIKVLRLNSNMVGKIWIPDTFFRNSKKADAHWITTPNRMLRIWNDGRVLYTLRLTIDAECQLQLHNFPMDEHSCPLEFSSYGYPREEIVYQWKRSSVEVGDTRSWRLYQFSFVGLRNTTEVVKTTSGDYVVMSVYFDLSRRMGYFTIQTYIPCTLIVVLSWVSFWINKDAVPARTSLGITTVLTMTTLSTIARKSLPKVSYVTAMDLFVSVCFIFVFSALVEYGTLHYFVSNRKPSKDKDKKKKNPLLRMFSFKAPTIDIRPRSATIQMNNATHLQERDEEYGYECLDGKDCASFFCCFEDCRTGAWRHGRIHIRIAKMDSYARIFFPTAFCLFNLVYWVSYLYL
T1 sequence (P31644 whole entry): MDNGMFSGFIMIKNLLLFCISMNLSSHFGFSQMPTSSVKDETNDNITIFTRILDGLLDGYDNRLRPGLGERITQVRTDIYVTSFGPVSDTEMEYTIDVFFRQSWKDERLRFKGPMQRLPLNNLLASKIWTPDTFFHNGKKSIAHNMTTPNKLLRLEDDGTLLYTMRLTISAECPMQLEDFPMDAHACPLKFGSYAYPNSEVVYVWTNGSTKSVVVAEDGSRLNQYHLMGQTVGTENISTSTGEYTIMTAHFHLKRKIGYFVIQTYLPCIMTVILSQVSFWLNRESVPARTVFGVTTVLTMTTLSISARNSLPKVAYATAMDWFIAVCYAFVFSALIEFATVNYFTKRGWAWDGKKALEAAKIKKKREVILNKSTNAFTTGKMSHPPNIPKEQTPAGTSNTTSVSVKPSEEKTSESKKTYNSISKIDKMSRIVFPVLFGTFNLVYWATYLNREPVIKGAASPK

[2] = molecular target: Gamma-aminobutyric acid receptor subunit rho-1 (Homo sapiens, UniProt P24046); test: Agonist activity at recombinant human GABA-A rho-1 receptor transiently expressed in human tsA201 cells incubated for 30 mins and measured up to 90 secs by FMP dye based FLIPR membrane potential blue assay
[3] = molecular target: T2, Sodium- and chloride-dependent GABA transporter 3 (Homo sapiens) (UniProt P48066); test: Inhibition of human GAT3 expressed in Flp-In CHO cells assessed as reduction in [3H]GABA uptake at 100 uM incubated for 3 mins by liquid scintillation counting method relative to control
T2 sequence (whole entry): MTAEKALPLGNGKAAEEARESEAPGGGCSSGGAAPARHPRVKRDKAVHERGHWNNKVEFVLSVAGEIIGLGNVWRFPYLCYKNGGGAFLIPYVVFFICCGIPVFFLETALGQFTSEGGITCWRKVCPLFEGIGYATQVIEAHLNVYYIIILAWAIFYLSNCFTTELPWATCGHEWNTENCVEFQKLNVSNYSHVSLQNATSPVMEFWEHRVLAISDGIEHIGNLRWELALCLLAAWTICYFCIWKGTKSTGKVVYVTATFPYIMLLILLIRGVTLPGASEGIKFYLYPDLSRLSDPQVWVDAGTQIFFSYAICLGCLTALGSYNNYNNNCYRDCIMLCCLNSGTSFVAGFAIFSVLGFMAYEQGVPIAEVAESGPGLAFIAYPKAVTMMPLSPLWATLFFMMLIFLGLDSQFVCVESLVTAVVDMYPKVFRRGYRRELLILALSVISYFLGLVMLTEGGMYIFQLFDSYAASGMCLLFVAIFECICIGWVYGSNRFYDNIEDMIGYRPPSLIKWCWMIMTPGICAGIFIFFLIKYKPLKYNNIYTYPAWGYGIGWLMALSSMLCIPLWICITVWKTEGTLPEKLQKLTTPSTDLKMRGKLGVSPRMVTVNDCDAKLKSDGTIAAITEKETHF

[4] = molecular target: Gamma-aminobutyric acid receptor subunit alpha-4/beta-2/gamma-2 (Homo sapiens, UniProt P47870+P18507+P48169); test: Agonist activity at recombinant human GABA-A alpha4beta2gamma2S receptor transiently expressed in human tsA201 cells assessed as GABA-induced maximum response incubated for 30 mins and measured up to 90 secs by FMP dye based FLIPR membrane potential blue assay relative to GABA
[5] = molecular target: T3, GABA-A receptor; alpha-1/beta-2/gamma-2 (Homo sapiens, UniProt P14867+P18507+P47870); test: Agonist activity at recombinant human GABA-A alpha1beta2gamma2S receptor transiently expressed in human tsA201 cells incubated for 30 mins and measured up to 90 secs by FMP dye based FLIPR membrane potential blue assay
T3 sequence (P14867 whole entry): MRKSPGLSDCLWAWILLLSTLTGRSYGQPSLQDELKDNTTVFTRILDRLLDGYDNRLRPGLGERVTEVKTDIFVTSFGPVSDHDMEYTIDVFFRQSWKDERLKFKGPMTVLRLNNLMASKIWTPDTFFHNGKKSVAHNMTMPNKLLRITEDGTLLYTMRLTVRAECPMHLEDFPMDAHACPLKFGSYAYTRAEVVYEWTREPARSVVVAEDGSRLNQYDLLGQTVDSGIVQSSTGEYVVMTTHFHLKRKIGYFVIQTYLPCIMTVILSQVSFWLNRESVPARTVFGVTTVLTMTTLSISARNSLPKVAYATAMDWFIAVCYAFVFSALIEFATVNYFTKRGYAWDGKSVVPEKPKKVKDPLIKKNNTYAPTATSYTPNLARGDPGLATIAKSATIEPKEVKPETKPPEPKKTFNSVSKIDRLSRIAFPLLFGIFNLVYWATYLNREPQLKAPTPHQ
T3 sequence (P47870 whole entry): T1 sequence (P47870 whole entry)
T3 sequence (P18507 whole entry): T1 sequence (P18507 whole entry)

Gamma-aminobutyric acid receptor subunit rho-1, sequence (P24046 whole entry): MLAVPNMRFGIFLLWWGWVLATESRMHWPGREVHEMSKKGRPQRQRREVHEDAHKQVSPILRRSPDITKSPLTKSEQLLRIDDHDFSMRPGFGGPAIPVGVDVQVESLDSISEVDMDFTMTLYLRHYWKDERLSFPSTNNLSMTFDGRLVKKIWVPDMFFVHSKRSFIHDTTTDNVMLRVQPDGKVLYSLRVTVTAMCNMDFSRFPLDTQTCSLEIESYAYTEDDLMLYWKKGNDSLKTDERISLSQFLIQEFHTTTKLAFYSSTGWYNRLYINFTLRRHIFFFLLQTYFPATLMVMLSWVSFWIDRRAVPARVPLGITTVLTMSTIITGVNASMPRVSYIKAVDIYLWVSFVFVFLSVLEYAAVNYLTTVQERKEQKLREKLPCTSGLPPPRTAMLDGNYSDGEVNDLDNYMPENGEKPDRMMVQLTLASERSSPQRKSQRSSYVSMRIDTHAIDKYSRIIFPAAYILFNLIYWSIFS

| SMILES | EC50 [1] | EC50 ([2]; read-out: EC50) | inhibition [3] | Rmax [4] | EC50 [5] | EC50 [2] | pEC50 [2] |
| --- | --- | --- | --- | --- | --- | --- | --- |
| CC(C(=O)O)C1CSC(N)=N1 (stereo in doubt; l-10b) | 11 µM | 1.2 µM |  |  |  |  |  |
| C[C@@H]1SC(N)=N[C@@H]1CC(=O)O (relative stereo) | 8.2 µM |  | > 30% | inactive |  |  |  |
| O=C(O)C[C@@H]1CCNC1 | 24 µM |  | > 30% | inactive |  | Not Active | inactive |
| CC(C(=O)O)C1CSC(N)=N1 (stereo in doubt; l-10a) | 2.7 µM | 7.4 µM |  |  | 25 µM |  |  |
| C[C@@H](C(=O)O)[C@@H]1CSC(N)=N1 (relative stereo) | 3 µM | 1.6 µM | > 30% | inactive | 9.7 µM |  |  |
| C[C@H]1SC(N)=N[C@@H]1CC(=O)O (relative stereo) | 17 µM |  | > 30% | inactive |  | Not Active | inactive |

The next compounds have a lower EC50 [1] than those just listed; values first:

| EC50 [1] | EC50 ([2]; read-out: EC50) | inhibition [3] | Rmax [4] | EC50 [5] | EC50 [2] | pEC50 [2] | SMILES |
| --- | --- | --- | --- | --- | --- | --- | --- |
| 2.6 µM |  | > 30% | inactive | 48 µM |  |  | C[C@@H](C(=O)O)[C@H]1CSC(N)=N1 (relative stereo) |
| 1.6 µM | 3.8 µM | > 30% | 81% | 11 µM |  |  | NC1=NC(CC(=O)O)CN1 (configuration not stated) |
| 0.94 µM | 8.4 µM | > 30% | 94% | 12 µM |  |  | O=C(O)C[C@H]1CCNC1 |
| 0.79 µM | 2.8 µM | > 30% | 74% | 7.6 µM |  |  | O=C(O)CC1CNC=N1 (configuration not stated) |
| 0.22 µM | 6.5 µM | > 30% | 93% | 1.8 µM |  |  | NC1=NC(CC(=O)O)CS1 (configuration not stated) |
